Reference: publication PMC7377239, “Cardiovascular Effects of Polychlorinated Biphenyls and Their Major Metabolites” (Environmental Health Perspectives, 2020)
Like-named read-outs stand apart in the source and are kept apart here.

Columns and labels:
[1] = tested on: iPSC-CMs, iPSC-ECs and HUVECs phenotypes; assay: ToxPi 2.0 integration of POD values and physicochemical descriptors; design: species or system human; details: ToxPi-scaled (0-1) score
Outline: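 Phenotypic readouts in iPSC-cardiomyocytes, iPSC-endothelial cells and HUVECs were normalised to 0.5% DMSO vehicle and fitted to a four-parameter logistic model. POD set at one SD cutoff of vehicle means, with 100 μM assigned when no response. PODs and physicochemical descriptors combined in ToxPi 2.0 scores.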

HUVECs = assay: Tube formation (tubulogenesis) assay in HUVECs, 18 h; type: cell-based, human; details: for minimal effective concentration / activity at 0.01 µM / activity at 0.1 µM / activity at 1 µM / activity at 10 µM / activity at 100 µM: Homo sapiens, HUVEC, 18 h; for activity at 1 µM: concentration 1.00 µM; for activity at 10 µM: concentration 10.00 µM
Outline: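 HUVECs (passage 1–5) seeded on reduced-growth-factor basement membrane and exposed to compounds overnight at 37°C, 5% CO2, in 2× maintenance medium with 12.5 ng/mL VEGF; 0.5% DMSO vehicle. Calcein AM-stained tube networks imaged and analysed; vehicle-normalized readouts fit to four-parameter logistic, POD set at one SD of vehicle means.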

[2] = iPSC endothelial cells, tube formation, 18 h
[3] = HUVECs tube formation, 0.00 µM = 100.00, read-out: huvec.mtl.18hr
[4] = HUVECs tube formation, 0.00 µM = 100.00, read-out: huvec.tlps.18hr
[5] = HUVECs tube formation, 0.00 µM = 100.00, read-out: huvec.tta.18hr
[6] = HUVECs tube formation, 0.00 µM = 100.00, read-out: huvec.ttl.18hr

`Clc1ccc(Cl)c(-c2c(Cl)ccc(Cl)c2Cl)c1Cl` [(+)-PCB 136, 2,2′,3,3′,6,6′-hexachlorobiphenyl] gave a huvec.cyto.24hr ([1]; HUVECs, 24 h) of 0.7118, a huvec.mito.24hr ([1]; HUVECs, 24 h) of 0.6728 and a huvec.mitoint.24hr ([1]; HUVECs, 24 h) of 1. For the same molecule, the huvec.nma.24hr ([1]; HUVECs, 24 h) was 0.5111, the huvec.tc.24hr ([1]; HUVECs, 24 h) was 0.7118 and the huvec.mtl.18hr ([1]; HUVECs, tube formation, 18 h) was 0.4492. It also gave a huvec.tlps.18hr ([1]; HUVECs, tube formation, 18 h) of 0, a huvec.tta.18hr ([1]; HUVECs, tube formation, 18 h) of 0 and a huvec.ttl.18hr ([1]; HUVECs, tube formation, 18 h) of 0. It also gave a cm.amp.avg.90min ([1]; iPSC cardiomyocytes, 90 min) of 0.6409, a cm.amp.cv.90min ([1]; iPSC cardiomyocytes, 90 min) of 0.2396 and a cm.bpm.90min ([1]; iPSC cardiomyocytes, 90 min) of 0.7987. It also gave a cm.cam.90min ([1]; iPSC cardiomyocytes, 90 min) of 0.4781, a cm.decay.rise.90min ([1]; iPSC cardiomyocytes, 90 min) of 0.1898 and a cm.mii.90min ([1]; iPSC cardiomyocytes, 90 min) of 0.5827. It also gave a cm.mito.90min ([1]; iPSC cardiomyocytes, 90 min) of 0.4679, a cm.spacing.cv.90min ([1]; iPSC cardiomyocytes, 90 min) of 0.07704 and a cm.tc.90min ([1]; iPSC cardiomyocytes, 90 min) of 0.4097. The cm.amp.avg.24hrs ([1]; iPSC cardiomyocytes, 24 h) was 0.5612, the cm.amp.cv.24hrs ([1]; iPSC cardiomyocytes, 24 h) was 0.5448 and the cm.bpm.24hrs ([1]; iPSC cardiomyocytes, 24 h) was 0.7213. It also gave a cm.cam.24hrs ([1]; iPSC cardiomyocytes, 24 h) of 0.5816, a cm.decay.rise.24hrs ([1]; iPSC cardiomyocytes, 24 h) of 0.9212 and a cm.mii.24hrs ([1]; iPSC cardiomyocytes, 24 h) of 0.1793. For the same molecule, the cm.mito.24hrs ([1]; iPSC cardiomyocytes, 24 h) was 0.8542, the cm.spacing.cv.24hrs ([1]; iPSC cardiomyocytes, 24 h) was 0.7501 and the cm.tc.24hrs ([1]; iPSC cardiomyocytes, 24 h) was 1. The endo.cyto.24hr ([1]; iPSC endothelial cells, 24 h) was 0.1692, the endo.mito.24hr ([1]; iPSC endothelial cells, 24 h) was 0.1692 and the endo.mitoint.24hr ([1]; iPSC endothelial cells, 24 h) was 0.294. For the same molecule, the endo.nma.24hr ([1]; iPSC endothelial cells, 24 h) was 0, the endo.tc.24hr ([1]; iPSC endothelial cells, 24 h) was 0.1732 and the endo.mtl.18hr [1, 2] was 0.04754. It also gave an endo.tlps.18hr [1, 2] of 0.448, an endo.tta.18hr [1, 2] of 0.8586 and an endo.ttl.18hr [1, 2] of 0.8499. For the same molecule, the huvec.tta.18hr (HUVECs; HUVECs tube formation, concentration 0.01 µM, 0.00 µM = 100.00) was 108.86, the huvec.tlps.18hr (HUVECs; HUVECs tube formation, concentration 0.10 µM, 0.00 µM = 100.00) was 71.77 and the huvec.tta.18hr (HUVECs; HUVECs tube formation, concentration 100.00 µM, 0.00 µM = 100.00) was 92.04. It also gave a minimal effective concentration (HUVECs; tube formation mtl, read-out: POD huvec.mtl.18hr) of 13.4 µM, a minimal effective concentration (HUVECs; tube formation tta, read-out: POD huvec.tta.18hr) of 100 µM and a minimal effective concentration (HUVECs; tube formation ttl, read-out: POD huvec.ttl.18hr) of 100 µM. The minimal effective concentration (HUVECs; HUVECs tube formation, MAX 100.00, read-out: huvec.mtl.18hr POD) was 13.4 µM, the minimal effective concentration (HUVECs; HUVECs tube formation, MAX 100.00, read-out: huvec.tta.18hr POD) was 100 µM and the minimal effective concentration (HUVECs; HUVECs tube formation, MAX 100.00, read-out: huvec.ttl.18hr POD) was 100 µM. The activity at 0.01 µM (HUVECs; HUVECs tube formation, concentration 0.01 µM, 0.00 µM = 100.00, read-out: huvec.mtl.18hr) was 92.2%, the activity at 0.01 µM (HUVECs; HUVECs tube formation, concentration 0.01 µM, 0.00 µM = 100.00, read-out: huvec.tlps.18hr) was 82.7% and the activity at 0.01 µM (HUVECs; HUVECs tube formation, concentration 0.01 µM, 0.00 µM = 100.00, read-out: huvec.ttl.18hr) was 105%. For the same molecule, the activity at 0.1 µM (HUVECs; HUVECs tube formation, concentration 0.10 µM, 0.00 µM = 100.00, read-out: huvec.mtl.18hr) was 93.1%, the activity at 0.1 µM (HUVECs; HUVECs tube formation, concentration 0.10 µM, 0.00 µM = 100.00, read-out: huvec.tta.18hr) was 107% and the activity at 0.1 µM (HUVECs; HUVECs tube formation, concentration 0.10 µM, 0.00 µM = 100.00, read-out: huvec.ttl.18hr) was 105%. The activity at 1 µM (HUVECs; [3]) was 96.3%, the activity at 1 µM (HUVECs; [4]) was 98.7% and the activity at 1 µM (HUVECs; [5]) was 102%. For the same molecule, the activity at 1 µM (HUVECs; [6]) was 99.6%, the activity at 10 µM (HUVECs; [3]) was 92.5% and the activity at 10 µM (HUVECs; [4]) was 100%. It also gave an activity at 10 µM (HUVECs; [5]) of 112%, an activity at 10 µM (HUVECs; [6]) of 104% and an activity at 100 µM (HUVECs; HUVECs tube formation, concentration 100.00 µM, 0.00 µM = 100.00, read-out: huvec.mtl.18hr) of 64.5%. For the same molecule, the activity at 100 µM (HUVECs; HUVECs tube formation, concentration 100.00 µM, 0.00 µM = 100.00, read-out: huvec.tlps.18hr) was 73.3% and the activity at 100 µM (HUVECs; HUVECs tube formation, concentration 100.00 µM, 0.00 µM = 100.00, read-out: huvec.ttl.18hr) was 83.9%.
